In patent publication US9974775B2, “Substituted imidazoles as N-type calcium channel blockers” (Janssen Pharmaceutica NV, priority 2013, dated 2018):
One block for each molecule: values may come before it.

Target: human N-type Ca channel (Homo sapiens, UniProt Q00975)
Assay: Measurement of electrophysiological response (QPatch)
Conditions: for IC50: concentration range 0.3-10 μM
[1] = N Type IC50 Data Qpatch Pulse = 1, Pulse = 1
[2] = N Type IC50 Data Qpatch Pulse = 15, Pulse = 15
[3] = concentration range 0.01-0.3 μM

Chain of human N-type Ca channel (Q00975 whole entry): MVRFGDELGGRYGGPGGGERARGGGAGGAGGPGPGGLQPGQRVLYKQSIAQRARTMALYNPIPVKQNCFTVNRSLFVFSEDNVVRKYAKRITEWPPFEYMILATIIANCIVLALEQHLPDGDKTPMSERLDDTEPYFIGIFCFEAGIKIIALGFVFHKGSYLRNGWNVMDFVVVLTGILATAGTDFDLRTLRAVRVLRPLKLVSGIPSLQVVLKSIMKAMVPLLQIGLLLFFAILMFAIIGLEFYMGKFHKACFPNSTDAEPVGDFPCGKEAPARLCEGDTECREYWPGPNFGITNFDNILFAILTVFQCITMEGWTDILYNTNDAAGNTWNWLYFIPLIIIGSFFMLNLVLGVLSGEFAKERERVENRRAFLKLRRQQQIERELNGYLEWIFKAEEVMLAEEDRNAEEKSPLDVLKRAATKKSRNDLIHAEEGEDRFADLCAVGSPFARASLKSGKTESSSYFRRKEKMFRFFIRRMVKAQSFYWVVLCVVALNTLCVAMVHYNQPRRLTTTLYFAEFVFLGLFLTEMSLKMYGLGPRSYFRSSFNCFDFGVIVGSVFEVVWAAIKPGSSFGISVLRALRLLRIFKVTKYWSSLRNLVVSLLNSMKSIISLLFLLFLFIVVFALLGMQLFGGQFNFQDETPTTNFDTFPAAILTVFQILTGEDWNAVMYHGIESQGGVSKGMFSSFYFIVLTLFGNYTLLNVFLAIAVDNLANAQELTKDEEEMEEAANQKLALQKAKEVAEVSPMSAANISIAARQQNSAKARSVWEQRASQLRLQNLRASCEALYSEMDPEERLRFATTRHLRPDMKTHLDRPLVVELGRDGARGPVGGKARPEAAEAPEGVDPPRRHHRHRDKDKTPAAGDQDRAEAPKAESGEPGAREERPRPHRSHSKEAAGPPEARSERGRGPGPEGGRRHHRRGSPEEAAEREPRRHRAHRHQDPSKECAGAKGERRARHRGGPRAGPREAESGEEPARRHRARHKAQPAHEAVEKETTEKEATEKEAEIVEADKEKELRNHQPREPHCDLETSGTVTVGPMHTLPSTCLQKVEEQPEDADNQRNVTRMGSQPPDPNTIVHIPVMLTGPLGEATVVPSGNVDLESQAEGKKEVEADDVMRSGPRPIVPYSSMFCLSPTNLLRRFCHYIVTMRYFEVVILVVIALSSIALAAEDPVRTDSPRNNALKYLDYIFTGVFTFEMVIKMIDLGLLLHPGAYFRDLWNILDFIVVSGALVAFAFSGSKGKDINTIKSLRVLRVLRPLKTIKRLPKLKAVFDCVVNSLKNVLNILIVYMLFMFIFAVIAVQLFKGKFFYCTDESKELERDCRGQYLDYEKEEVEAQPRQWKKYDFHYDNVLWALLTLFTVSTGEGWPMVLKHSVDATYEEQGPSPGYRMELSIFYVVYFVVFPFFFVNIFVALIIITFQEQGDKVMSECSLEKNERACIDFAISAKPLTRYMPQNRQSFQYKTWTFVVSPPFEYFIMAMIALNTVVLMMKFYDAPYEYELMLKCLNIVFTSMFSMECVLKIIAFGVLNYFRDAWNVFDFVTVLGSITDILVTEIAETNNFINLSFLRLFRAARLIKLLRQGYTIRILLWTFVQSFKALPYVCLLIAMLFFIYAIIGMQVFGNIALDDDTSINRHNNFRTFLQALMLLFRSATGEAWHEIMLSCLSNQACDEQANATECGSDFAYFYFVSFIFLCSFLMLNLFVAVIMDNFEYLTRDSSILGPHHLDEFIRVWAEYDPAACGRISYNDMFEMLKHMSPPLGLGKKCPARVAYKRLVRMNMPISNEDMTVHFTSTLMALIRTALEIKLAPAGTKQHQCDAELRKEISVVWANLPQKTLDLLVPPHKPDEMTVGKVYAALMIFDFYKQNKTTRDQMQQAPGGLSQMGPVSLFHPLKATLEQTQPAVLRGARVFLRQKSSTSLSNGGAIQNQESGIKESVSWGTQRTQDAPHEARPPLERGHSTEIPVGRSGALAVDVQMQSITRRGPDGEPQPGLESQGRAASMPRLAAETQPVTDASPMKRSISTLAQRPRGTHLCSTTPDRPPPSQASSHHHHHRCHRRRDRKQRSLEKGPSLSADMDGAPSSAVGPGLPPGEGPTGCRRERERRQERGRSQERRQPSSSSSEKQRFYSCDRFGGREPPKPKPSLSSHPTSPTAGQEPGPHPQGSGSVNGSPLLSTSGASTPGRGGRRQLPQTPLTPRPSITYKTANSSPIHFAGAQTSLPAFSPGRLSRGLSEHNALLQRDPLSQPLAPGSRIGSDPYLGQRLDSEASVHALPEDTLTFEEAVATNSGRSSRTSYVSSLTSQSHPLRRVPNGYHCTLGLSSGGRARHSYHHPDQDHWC
Chain of human N-type Ca channel (P54284 whole entry partner): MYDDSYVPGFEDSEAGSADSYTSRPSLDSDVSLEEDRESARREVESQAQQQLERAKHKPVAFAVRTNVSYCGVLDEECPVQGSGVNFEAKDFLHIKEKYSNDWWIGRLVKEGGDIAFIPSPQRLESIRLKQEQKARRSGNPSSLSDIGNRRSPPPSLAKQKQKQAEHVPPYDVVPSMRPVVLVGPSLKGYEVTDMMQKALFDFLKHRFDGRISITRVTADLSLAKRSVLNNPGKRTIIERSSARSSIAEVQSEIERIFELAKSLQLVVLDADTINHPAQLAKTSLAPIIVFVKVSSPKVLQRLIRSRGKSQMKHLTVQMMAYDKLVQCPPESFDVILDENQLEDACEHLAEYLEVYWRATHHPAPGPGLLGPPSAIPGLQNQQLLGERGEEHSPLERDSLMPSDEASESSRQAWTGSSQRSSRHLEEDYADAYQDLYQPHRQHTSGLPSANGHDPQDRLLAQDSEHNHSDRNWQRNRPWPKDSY
Chain of human N-type Ca channel (P54289 25-956 partner limits assumed): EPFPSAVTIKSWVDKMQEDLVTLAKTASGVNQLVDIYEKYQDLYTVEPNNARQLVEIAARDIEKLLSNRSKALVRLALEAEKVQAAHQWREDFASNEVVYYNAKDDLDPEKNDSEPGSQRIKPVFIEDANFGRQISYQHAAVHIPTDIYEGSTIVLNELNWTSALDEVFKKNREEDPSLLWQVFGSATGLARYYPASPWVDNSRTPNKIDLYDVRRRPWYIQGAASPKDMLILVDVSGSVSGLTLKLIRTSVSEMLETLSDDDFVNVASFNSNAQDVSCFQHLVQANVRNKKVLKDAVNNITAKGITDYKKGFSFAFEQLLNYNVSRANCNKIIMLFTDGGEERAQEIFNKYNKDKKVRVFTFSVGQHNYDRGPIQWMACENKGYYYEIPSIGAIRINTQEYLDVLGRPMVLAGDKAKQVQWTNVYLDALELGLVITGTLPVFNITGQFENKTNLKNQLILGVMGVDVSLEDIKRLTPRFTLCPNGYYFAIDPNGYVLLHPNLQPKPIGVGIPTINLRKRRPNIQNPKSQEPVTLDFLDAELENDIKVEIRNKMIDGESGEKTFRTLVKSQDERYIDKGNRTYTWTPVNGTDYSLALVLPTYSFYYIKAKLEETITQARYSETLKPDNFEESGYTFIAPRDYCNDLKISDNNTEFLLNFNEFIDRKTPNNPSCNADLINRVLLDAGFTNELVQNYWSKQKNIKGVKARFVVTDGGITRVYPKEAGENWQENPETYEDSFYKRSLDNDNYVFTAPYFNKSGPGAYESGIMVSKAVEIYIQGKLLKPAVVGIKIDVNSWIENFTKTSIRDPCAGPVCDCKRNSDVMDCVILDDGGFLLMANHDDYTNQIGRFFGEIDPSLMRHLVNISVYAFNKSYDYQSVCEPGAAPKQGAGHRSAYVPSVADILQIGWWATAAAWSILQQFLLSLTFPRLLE
Chain of human N-type Ca channel (P54289 957-1103 partner limits assumed): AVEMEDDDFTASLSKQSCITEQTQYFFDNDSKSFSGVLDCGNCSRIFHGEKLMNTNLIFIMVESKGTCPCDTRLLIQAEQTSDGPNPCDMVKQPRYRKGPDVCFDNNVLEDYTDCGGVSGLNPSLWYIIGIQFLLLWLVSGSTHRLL
Description: The recombinant cell line described above was used in the measurement of electrophysiological properties with QPatch (Sophion). […] Prior to the experiment, the flasks were moved to 30° C. and incubated for 48-72 hrs. On the day of assaying, cells were detached and harvested. The cell pellet was re-suspended in SMF4HEK (HyClone)/25 mM HEPS at 2-5 million/mL and placed on the QStirrer of the QPatch for 30-60 min prior to the start of the assay. […] Microtiter-Plate/Reference Buffer contained 140 mM TEA-Cl, 10 mM BaCl2, 0.8 mM MgCl2, 10 mM HEPES pH˜7.4 adjusted with TEA-OH/HCl, and ˜300 mOsm. Cells were transferred to a QPatch 48 plate and gigaseal was formed. The plate was perfused with intracellular and extracellular buffer. […] In brief, cells were depolarized from resting potential of −80 mV to +20 mV and current was recorded. Data was plotted as percent inhibition vs concentration of the compound and IC50 values were generated using Graphpad Prism non-linear regression analysis.

SMILES: COc1ccccc1-c1nc(C2CC(C)(C)OC(C)(C)C2)cn1-c1ccc(C)nc1 [Cpd 5, 5-[2-(2-Methoxyphenyl)-4-(2,2,6,6-tetramethyltetrahydro-2H-pyran-4-yl)-1H-imidazol-1-yl]-2-methylpyridine]
IC50 [2]: ≥ 10 µM

SMILES: COc1ccccc1-c1nc(C2CC(C)(C)OC(C)(C)C2)cn1-c1ccc(C)cn1 [Cpd 6, 2-[2-(2-Methoxyphenyl)-4-(2,2,6,6-tetramethyltetrahydro-2H-pyran-4-yl)-1H-imidazol-1-yl]-5-methylpyridine]
IC50 [1]: ≥ 10 µM
IC50 [2]: ≥ 10 µM

SMILES: COc1ncccc1-c1nc(C2CC(C)(C)OC(C)(C)C2)cn1-c1ccc(C#N)c(C)c1 [Cpd 15, 4-[2-(2-Methoxypyridin-3-yl)-4-(2,2,6,6-tetramethyltetrahydro-2H-pyran-4-yl)-1H-imidazol-1-yl]-2-methylbenzonitrile]
N Type IC50 Data Qpatch Pulse = 1 [3]: poor fit
N Type IC50 Data Qpatch Pulse = 15 [3]: poor fit

SMILES: COc1cc(-n2cc(C3CC(C)(C)OC(C)(C)C3)nc2-c2cccnc2OC)ccc1F [Cpd 24, 3-[1-(4-Fluoro-3-methoxyphenyl)-4-(2,2,6,6-tetramethyltetrahydro-2H-pyran-4-yl)-1H-imidazol-2-yl]-2-methoxypyridine]
Qpatch Pulse = 1 (percent inhibition) (concentration range 0.01-1 μM): 29%

SMILES: COc1ncccc1-c1nc(C2CC(C)(C)OC(C)(C)C2)cn1Cc1ccccc1Cl [Cpd 27, 3-[1-(2-Chlorobenzyl)-4-(2,2,6,6-tetramethyltetrahydro-2H-pyran-4-yl)-1H-imidazol-2-yl]-2-methoxypyridine]
N Type IC50 Data Qpatch Pulse = 1 [3]: poor fit

SMILES: COc1ncccc1-c1nc(C2CC(C)(C)OC(C)(C)C2)cn1Cc1ccc(Cl)cc1 [Cpd 28, 3-[1-(4-Chlorobenzyl)-4-(2,2,6,6-tetramethyltetrahydro-2H-pyran-4-yl)-1H-imidazol-2-yl]-2-methoxypyridine]
N Type IC50 Data Qpatch Pulse = 1 [3]: poor fit
N Type IC50 Data Qpatch Pulse = 15 [3]: poor fit

SMILES: COc1ncccc1-c1nc(C2CC(C)(C)OC(C)(C)C2)cn1-c1ccc(C#N)c(C(F)(F)F)c1 [Cpd 29, 4-(2-(2-methoxypyridin-3-yl)-4-(2,2,6,6-tetramethyltetrahydro-2H-pyran-4-yl)-1H-imidazol-1-yl)-2-(trifluoromethyl)benzonitrile]
N Type IC50 Data Qpatch Pulse = 1 [3]: poor fit
N Type IC50 Data Qpatch Pulse = 15 [3]: poor fit

SMILES: COc1cc(-n2cc(C3CC(C)(C)OC(C)(C)C3)nc2-c2ccccc2OC)ccc1C#N [Cpd 34, 2-Methoxy-4-[2-(2-methoxyphenyl)-4-(2,2,6,6-tetramethyltetrahydro-2H-pyran-4-yl)-1H-imidazol-1-yl]benzonitrile]
Qpatch Pulse = 1 (percent inhibition) (concentration range 0.01-1 μM): 38%

SMILES: COc1ncccc1-c1nc(C2CC(C)(C)OC(C)(C)C2)cn1-c1ccc(F)c(Cl)c1 [Cpd 46, 3-[1-(3-Chloro-4-fluorophenyl)-4-(2,2,6,6-tetramethyltetrahydro-2H-pyran-4-yl)-1H-imidazol-2-yl]-2-methoxypyridine]
IC50 [1]: ≥ 10 µM

SMILES: COc1ncccc1-c1nc(C2CC(C)(C)OC(C)(C)C2)cn1-c1ccc(C(F)(F)F)nc1 [Cpd 54, 2-Methoxy-3-{4-(2,2,6,6-tetramethyltetrahydro-2H-pyran-4-yl)-1-[6-(trifluoromethyl)pyridin-3-yl]-1H-imidazol-2-yl}pyridine]
N Type IC50 Data Qpatch Pulse = 1 (concentration range 0.01-1 μM): Poor fit
N Type IC50 Data Qpatch Pulse = 15 (concentration range 0.01-1 μM): Poor fit

SMILES: CC1(C)CC(c2cn(-c3ccc(Cl)cc3)c(CC3CC3)n2)CC(C)(C)O1 [Cpd 55, 1-(4-Chlorophenyl)-2-(cyclopropylmethyl)-4-(2,2,6,6-tetramethyltetrahydro-2H-pyran-4-yl)-1H-imidazole]
Qpatch Pulse = 1 (percent inhibition) (concentration range 0.01-1 μM): 48%

SMILES: CC1(C)CC(c2cn(-c3ccc(C(F)(F)F)nc3)c(CC3CC3)n2)CC(C)(C)O1 [Cpd 59, 5-[2-(Cyclopropylmethyl)-4-(2,2,6,6-tetramethyltetrahydro-2H-pyran-4-yl)-1H-imidazol-1-yl]-2-(trifluoromethyl)pyridine]
N Type IC50 Data Qpatch Pulse = 1 [3]: poor fit
N Type IC50 Data Qpatch Pulse = 15 [3]: poor fit

SMILES: CCOc1nccnc1-c1nc(C2CC(C)(C)OC(C)(C)C2)cn1-c1ccc(Cl)cc1 [Cpd 60, 2-[1-(4-Chlorophenyl)-4-(2,2,6,6-tetramethyltetrahydro-2H-pyran-4-yl)-1H-imidazol-2-yl]-3-ethoxypyrazine]
N Type IC50 Data Qpatch Pulse = 15 [3]: poor fit

SMILES: COc1cnccc1-c1nc(C2CC(C)(C)OC(C)(C)C2)cn1-c1ccc(Cl)cc1 [Cpd 66, 4-(1-(4-chlorophenyl)-4-(2,2,6,6-tetramethyltetrahydro-2H-pyran-4-yl)-1H-imidazol-2-yl)-3-methoxypyridine]
IC50 [1]: ≥ 10 µM

SMILES: COc1ncccc1-c1nc(C2CC(C)(C)OC(C)(C)C2)cn1-c1cc(F)ccc1F [Cpd 71, 3-(1-(2,5-difluorophenyl)-4-(2,2,6,6-tetramethyltetrahydro-2H-pyran-4-yl)-1H-imidazol-2-yl)-2-methoxypyridine]
N Type IC50 Data Qpatch Pulse = 15 (concentration range 0.01-1 μM): poor fit

SMILES: COc1ncccc1-c1nc(C2CC(C)(C)OC(C)(C)C2)cn1-c1ccc(C#N)c(Cl)c1 [Cpd 78, 2-Chloro-4-[2-(2-methoxypyridin-3-yl)-4-(2,2,6,6-tetramethyltetrahydro-2H-pyran-4-yl)-1H-imidazol-1-yl]benzonitrile]
Qpatch Pulse = 1 (percent inhibition) (concentration range 0.01-1 μM): 58%

SMILES: COc1ncccc1-c1nc(C2CC(C)(C)OC(C)(C)C2)cn1-c1cc(F)c(C#N)c(F)c1 [Cpd 82, 2,6-difluoro-4-(2-(2-methoxypyridin-3-yl)-4-(2,2,6,6-tetramethyltetrahydro-2H-pyran-4-yl)-1H-imidazol-1-yl)benzonitrile]
N Type IC50 Data Qpatch Pulse = 1 [3]: poor fit
N Type IC50 Data Qpatch Pulse = 15 [3]: poor fit

SMILES: COc1ccccc1-c1nc(C2CC(C)(C)OC(C)(C)C2)cn1-c1c(F)cc(C#N)cc1F [Cpd 83, 3,5-difluoro-4-(2-(2-methoxyphenyl)-4-(2,2,6,6-tetramethyltetrahydro-2H-pyran-4-yl)-1H-imidazol-1-yl)benzonitrile]
N Type IC50 Data Qpatch Pulse = 1 [3]: poor fit
N Type IC50 Data Qpatch Pulse = 15 [3]: poor fit

SMILES: COc1ncccc1-c1nc(C2CC(C)(C)OC(C)(C)C2)cn1-c1ccc(Cl)c(C#N)c1 [Cpd 84, 2-Chloro-5-[2-(2-methoxypyridin-3-yl)-4-(2,2,6,6-tetramethyltetrahydro-2H-pyran-4-yl)-1H-imidazol-1-yl]benzonitrile]
Qpatch Pulse = 1 (percent inhibition) (concentration range 0.01-1 μM): 39%

SMILES: COc1ncncc1-c1nc(C2CC(C)(C)OC(C)(C)C2)cn1-c1ccc(C#N)cc1 [Cpd 86, 4-[2-(4-Methoxypyrimidin-5-yl)-4-(2,2,6,6-tetramethyltetrahydro-2H-pyran-4-yl)-1H-imidazol-1-yl]benzonitrile]
Qpatch Pulse = 1 (percent inhibition) (concentration range 0.01-1 μM): 28%

SMILES: COc1nccnc1-c1nc(C2CC(C)(C)OC(C)(C)C2)cn1-c1ccc(C#N)cc1 [Cpd 87, 4-[2-(3-Methoxypyrazin-2-yl)-4-(2,2,6,6-tetramethyltetrahydro-2H-pyran-4-yl)-1H-imidazol-1-yl]benzonitrile]
N Type IC50 Data Qpatch Pulse = 1 [3]: poor fit
N Type IC50 Data Qpatch Pulse = 15 [3]: poor fit

Further lines, results first:

IC50 [1]: ≥ 10 µM
SMILES: COc1ccccc1-c1nc(C2CC(C)(C)OC(C)(C)C2)cn1-c1ccc(F)cc1 [Cpd 4, 1-(4-Fluorophenyl)-2-(2-methoxyphenyl)-4-(2,2,6,6-tetramethyltetrahydro-2H-pyran-4-yl)-1H-imidazole]

Qpatch Pulse = 1 (percent inhibition) (concentration range 0.01-1 μM): 46%
Qpatch Pulse = 15 (percent inhibition) (concentration range 0.01-1 μM): 37%
SMILES: COc1ncccc1-c1nc(C2CC(C)(C)OC(C)(C)C2)cn1Cc1cccc(Cl)c1 [Cpd 9, 3-(1-(3-chlorobenzyl)-4-(2,2,6,6-tetramethyltetrahydro-2H-pyran-4-yl)-1H-imidazol-2-yl)-2-methoxypyridine]

N Type IC50 Data Qpatch Pulse = 1 [3]: poor fit
N Type IC50 Data Qpatch Pulse = 15 [3]: poor fit
SMILES: COc1ncccc1-c1nc(C2CC(C)(C)OC(C)(C)C2)cn1-c1ccc(F)c(F)c1F [Cpd 16, 2-methoxy-3-(4-(2,2,6,6-tetramethyltetrahydro-2H-pyran-4-yl)-1-(2,3,4-trifluorophenyl)-1H-imidazol-2-yl)pyridine]

Qpatch Pulse = 15 (percent inhibition) (concentration range 0.01-1 μM): 39%
SMILES: COc1ccccc1-c1nc(C2CC(C)(C)OC(C)(C)C2)cn1-c1ccc(C#N)c(C)c1 [Cpd 21, 4-[2-(2-Methoxyphenyl)-4-(2,2,6,6-tetramethyltetrahydro-2H-pyran-4-yl)-1H-imidazol-1-yl]-2-methylbenzonitrile]

Qpatch Pulse = 1 (percent inhibition) (concentration range 0.01-1 μM): 21%
SMILES: COc1ccc(-n2cc(C3CC(C)(C)OC(C)(C)C3)nc2-c2cccnc2OC)cc1F [Cpd 23, 3-[1-(3-Fluoro-4-methoxyphenyl)-4-(2,2,6,6-tetramethyltetrahydro-2H-pyran-4-yl)-1H-imidazol-2-yl]-2-methoxypyridine]

N Type IC50 Data Qpatch Pulse = 15 [3]: poor fit
SMILES: COc1ncccc1-c1nc(C2CC(C)(C)OC(C)(C)C2)cn1-c1cccc(F)c1F [Cpd 31, 3-(1-(2,3-difluorophenyl)-4-(2,2,6,6-tetramethyltetrahydro-2H-pyran-4-yl)-1H-imidazol-2-yl)-2-methoxypyridine]

IC50 [1]: ≥ 10 µM
SMILES: COc1ccncc1-c1nc(C2CC(C)(C)OC(C)(C)C2)cn1-c1ccc(Cl)cc1 [Cpd 68, 3-(1-(4-chlorophenyl)-4-(2,2,6,6-tetramethyltetrahydro-2H-pyran-4-yl)-1H-imidazol-2-yl)-4-methoxypyridine]

N Type IC50 Data Qpatch Pulse = 1 (concentration range 0.01-1 μM): poor fit
N Type IC50 Data Qpatch Pulse = 15 (concentration range 0.01-1 μM): poor fit
SMILES: COc1ncccc1-c1nc(C2CC(C)(C)OC(C)(C)C2)cn1-c1cc(F)cc(F)c1 [Cpd 72, 3-(1-(3,5-difluorophenyl)-4-(2,2,6,6-tetramethyltetrahydro-2H-pyran-4-yl)-1H-imidazol-2-yl)-2-methoxypyridine]

N Type IC50 Data Qpatch Pulse = 1 (concentration range 0.01-1 μM): poor fit
N Type IC50 Data Qpatch Pulse = 15 (concentration range 0.01-1 μM): poor fit
SMILES: COc1ncccc1-c1nc(C2CC(C)(C)OC(C)(C)C2)cn1-c1cc(F)cc(C#N)c1 [Cpd 73, 3-fluoro-5-(2-(2-methoxypyridin-3-yl)-4-(2,2,6,6-tetramethyltetrahydro-2H-pyran-4-yl)-1H-imidazol-1-yl)benzonitrile]

Qpatch Pulse = 1 (percent inhibition) (concentration range 0.01-1 μM): 45%
SMILES: COc1ccc(-n2cc(C3CC(C)(C)OC(C)(C)C3)nc2-c2cccnc2OC)cc1C#N [Cpd 85, 2-Methoxy-5-[2-(2-methoxypyridin-3-yl)-4-(2,2,6,6-tetramethyltetrahydro-2H-pyran-4-yl)-1H-imidazol-1-yl]benzonitrile]
